The text below walks through data of PubChem BioAssay (NCI).

The structures appear in SMILES notation.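 Cultured in 96-well plates, cells were exposed to test compound for 48 hours across five concentrations. TGI marks complete inhibition of growth.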

What all share (test): growth of human tumour cells (NCI), 48 h
For experiment [1], the system named is A498 renal.
Experiment [2] has as its system HCC-2998 colon.
In experiment [3] the test system is HOP-92 NSCLC.
The subject of experiment [4] is KM12 colon.
Experiment [5] has as its system NCI-H460 lung.
The test system of experiment [6] is OVCAR-4 ovarian.
For experiment [7], the system named is RXF 393 renal.
For experiment [8], the system named is SF-295 CNS.
Experiment [9] concerns SN12C renal.
For experiment [10], the system named is SNB-75 CNS.
The subject of experiment [11] is SK-OV-3 ovarian.

As to `CCNC(=O)c1c(O)c2ccccc2[nH]c1=O`, the TGI in experiment [1], in experiment [2], in [3], in [4], in experiment [5] and in experiment [6] was over 100 µM each time. Besides, the TGI in experiment [7], in experiment [8], in experiment [9] and in experiment [10] was over 100 µM throughout.

In the case of `O=C1CCCCCCCCCCC1CN1CCCCC1` (stereo not drawn), the TGI in experiment [1], in [2], in experiment [4], in [5], in experiment [6] and in [8] was over 100 µM throughout. In addition, the TGI in experiment [9] and in experiment [10] was over 100 µM throughout.

Regarding `CC(C)(C)C(=O)OC12/C(=N/O)CCCCCC1c1ccccc12` (stereo not drawn), the TGI is 30.5 µM in experiment [1]; over 100 µM in experiment [2]; 30.1 µM in experiment [4]; 32.3 µM in [5]; 33 µM in [6]; 33.9 µM in [7]. The TGI in experiment [8] was determined as 29.2 µM; in experiment [11], 33.6 µM; in experiment [9], 33.6 µM; in experiment [10], 27.8 µM.

With `Cc1c(C(=O)/C=C/c2ccccc2O)c(=O)n(-c2ccccc2)n1C`, the TGI was determined as 90 µM in experiment [1]; 29.5 µM in experiment [2]; 64.6 µM in [3]; 53.3 µM in experiment [5]; 50.8 µM in experiment [7]; 54.9 µM in experiment [8]. Further, the TGI in experiment [11] is over 100 µM; in experiment [9], 52.6 µM; in experiment [10], over 100 µM.

Take `Cc1c(C(=O)/C=C/c2ccc(N(C)C)cc2)c(=O)n(-c2ccccc2)n1C`: the TGI in [1], in [2], in experiment [3], in [4], in experiment [5] and in [7] was over 100 µM throughout. Besides, the TGI in experiment [8], in experiment [11] and in experiment [9] was over 100 µM in each case.

For `Cc1csc(/N=C\c2c(O)c3ccccc3oc2=O)n1`, the TGI in experiment [3] was 89.8 µM; in experiment [4], over 100 µM; in [6], over 100 µM; in experiment [11], 45.6 µM; in experiment [10], 65.1 µM.

Regarding `S=C(c1c[nH]c2ccccc12)N1CCN(Cc2ccccc2)CC1`, the TGI in experiment [1] came out at 37.3 µM; in [4] it was 33.8 µM; in [5] it was 67.6 µM; in experiment [7], 30.9 µM; in experiment [8], 29 µM; in experiment [11], 51.4 µM. Moreover, the TGI in experiment [9] was 30.1 µM; in experiment [10], 37 µM.

`O=CC12C3CCC1C2C(=O)C3` (stereo not drawn): the TGI in experiment [2], in experiment [3], in [4], in [5], in experiment [6] and in [7] was over 100 µM in each case. Moreover, the TGI in experiment [8], in experiment [11], in [9] and in experiment [10] was over 100 µM in each case.

As for `CC[C@H]1C=CCC[C@@]2(C[C@@H]3CC[C@H]4[C@@H](C(=O)OCCCCCCCCCCCCCCCC(=O)N(CCCN)C[C@@H](O)CCN)[C@@]5(CCC[C@@H](C)O5)NC(=[N+]34)N2)O1`, the TGI is 6.62 µM in experiment [1]; 3.12 µM in [2]; 4.1 µM in [3]; 2.91 µM in experiment [4]; 3.36 µM in experiment [5]; over 10 µM in experiment [6]. The TGI in experiment [7] stood at 4.41 µM; in [8] it was 3.68 µM; in experiment [11], 3.19 µM; in [9], 9.33 µM.

Regarding `Cc1ccc2oc(=O)c(C(=O)Nc3nc(C45CC6CC(CC(C6)C4)C5)cs3)cc2c1`, the TGI in experiment [1], in experiment [2], in [3], in experiment [4], in experiment [5] and in experiment [6] was over 100 µM each time. For the same compound, the TGI in experiment [7], in experiment [8], in experiment [9] and in experiment [10] was over 100 µM each time.

`CC(C)C1=CC23CCC4C(C)(C(=O)O)CCCC4(C)C2CC1C1C(=O)N(c2ccccc2)C(=O)C13` (stereo not drawn): the TGI in [3] is 97.4 µM; in experiment [4], over 100 µM; in experiment [5], over 100 µM; in experiment [6], over 100 µM; in experiment [7] it was 76.1 µM; in [8] it was over 100 µM. Further, the TGI in [11], in experiment [9] and in experiment [10] was over 100 µM each time.
